A short description of the data set: gradient 5% acetonitrile 3 min, to 50% in 2 min, to 85% in 15 min, held 3 min, 100 µL/min. To be noted: column: Zorbax Extend-C18 2.1 x 50 mm; eluents: water / acetonitrile, 0.1% formic acid. The procedure, abridged: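 Over 3 months, pure standards in mixtures of ~100 molecules were run by HPLC coupled to a quadrupole time-of-flight mass spectrometer in positive and negative ionization mode. The column was a Zorbax Extend-C18 (2.1 × 50 mm, 1.8 μm) at 100 μL/min, eluted with water and acetonitrile each holding 0.1% formic acid, with 40 μL dead and 900 μL dwell volumes. Retention time was determined from adduct peaks chosen by software and checked manually.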
The molecule `O=C(CCn1nnc2cc(-c3noc(Cc4ccc(Cl)cc4)n3)ccc21)N1CCOCC1` registered an RP-LC retention time of 878 s.
Turning to `Cc1nc(NC(=O)c2cc(C3CC3)n(C3CCS(=O)(=O)C3)n2)sc1C` (stereo not drawn), the RP-LC retention time came to 764 s.
As to `COCCc1noc(C2CN(C(=O)c3ccsc3)C2)n1`, the RP-LC retention time turned out to be 654 s.
Turning to `CCOC(=O)[C@@H](C)NC(=O)C1CCN(S(=O)(=O)c2ccc(C)cc2)CC1`, the RP-LC retention time amounted to 787 s.
In turn, `CN1c2ccc(Cl)cc2C(=O)NC12CCN(C(=O)c1ccccc1)CC2` displayed an RP-LC retention time of 793 s.
`Cc1cccc(-c2csc3c(=O)n(Cc4cc(=O)n5ccccc5n4)cnc23)c1` gave an RP-LC retention time of 831 s.
`COCCNC(=O)c1nc(-c2ccnc(N3CCCCC3)c2)no1` returned an RP-LC retention time of 612 s.
The result for `COc1ccccc1-c1nnc(-c2ccc(Cl)c(S(=O)(=O)N3CCCCC3)c2)o1` reads 1100 s; that for `CN(C(=O)c1cc2c(=O)oc3ccccc3c2n1C)c1ccccc1F`, 1060 s.
The result for `CC(=O)N(Cc1nn(C)c2c1CN(S(=O)(=O)c1cc(F)ccc1F)CC2)c1ccccc1` reads 800 s.
The result for `O=C(Cc1c(F)cccc1Cl)N1CCN(Cc2ccsc2)CC1` reads 570 s.
For `Fc1cccc(CN2CCc3nc(N4CCOCC4)ncc3C2)c1`, the RP-LC retention time came to 604 s.
Regarding `O=C(NCCn1ncccc1=O)C1(c2cccs2)CCCC1`, the RP-LC retention time was 652 s.
As for `CC(C)c1ccc(-n2ncc3c(=O)n(Cc4nc(-c5ccc(Cl)cc5)no4)cnc32)cc1`, the RP-LC retention time was found to be 1320 s.
As to `CSc1cccc(NC(=O)Cn2nc3n(c2=O)CCCC3)c1`, the RP-LC retention time stood at 669 s.
Take `Cc1nn(CC(=O)NCC2CCCO2)c(=O)c2c(-n3cccc3)n(-c3cccc(F)c3)nc12` (stereo not drawn): the RP-LC retention time came to 818 s.
To `CCOc1ccc(NC(=O)N2CCN(c3cc(C)nc(N4CCCC4)n3)CC2)cc1` belongs 681 s; to `Cc1cnc(-c2ccccc2)n1CCNS(=O)(=O)c1ccccc1`, 629 s; to `CCNc1cc(N2CCC(CCC(=O)NCc3ccccc3C)CC2)ncn1`, 651 s.
The result for `O=C(NCCC1=CCCCC1)c1c(OCC2CC2)cc(=O)n2c1CCCCC2` reads 887 s; that for `CC(C)c1noc(-c2ccnc(-n3cnc(C(=O)NC(C)c4ccccc4)c3)c2)n1` (stereo not drawn), 1000 s.
To `CC(C)c1nnc(NC(=O)c2cc(Cl)ccc2Cl)s1` belongs 828 s; to `CCN1CCN(C(=O)CCC(=O)N2CCc3c(c(C(=O)N4CCCC4)nn3C)C2)CC1`, 563 s; to `Cc1cc(C)cc(S(=O)(=O)N2CCC(c3nc(C(=O)N4CCCC4)c(C)o3)CC2)c1`, 1010 s.
`O=C1CCCc2cc(S(=O)(=O)Nc3ccc(CN4CCCCC4)cc3)ccc2N1`: the RP-LC retention time turned out to be 597 s.
The result for `CCc1nc2cc(N3CCC(C(=O)NC(C)c4ccccc4)CC3)cnc2nc1CC` (stereo not drawn) reads 837 s; that for `NC(=O)Cn1c(CNC(=O)c2ccccc2)nc2ccccc21`, 573 s.
`Cc1cccc(C)c1NC(=O)CN1C(=O)NC(c2ccc(Cl)cc2)C2=C1COC2=O` (stereo not drawn): the RP-LC retention time came to 747 s.
The result for `CCNS(=O)(=O)c1cccnc1Nc1cc(C)cc(C)c1` reads 1060 s; that for `Cc1nc2n(c(=O)c1C)CCN2CC(=O)NCc1ccccc1Cl`, 652 s; that for `Cn1nc(-c2nc(Cc3ccccc3)no2)c2c1CCN(C(=O)Nc1ccccc1)C2`, 905 s.
`CC(=O)N1CCC(n2c(C)nc(C(=O)Nc3ccc4c(c3)OCCO4)c2C)CC1` had an RP-LC retention time of 612 s.
Molecule `CCCN(C)C(=O)c1c(C)oc2ccn(Cc3ccc(F)cc3)c(=O)c12` came in with an RP-LC retention time of 761 s.
